Laboratory results as given in patent US20250034216A1, “STEREOSELECTIVE COVALENT LIGANDS FOR ONCOGENIC AND IMMUNOLOGICAL PROTEINS” (The Scripps Research Institute, priority 2021, published 2025).

Assays:
CNOT4_C175 = biological target: T1, CNOT4_C175 (Homo sapiens, UniProt O95628); assay: IA-DTB cysteine engagement; assay type: binding; conditions: 22Rv1 cells, 20 μM probe, 1 h, relative to DMSO
T1 construct: endogenous in cells; host or cells: 22Rv1
T1 sequence (O95628 1-575): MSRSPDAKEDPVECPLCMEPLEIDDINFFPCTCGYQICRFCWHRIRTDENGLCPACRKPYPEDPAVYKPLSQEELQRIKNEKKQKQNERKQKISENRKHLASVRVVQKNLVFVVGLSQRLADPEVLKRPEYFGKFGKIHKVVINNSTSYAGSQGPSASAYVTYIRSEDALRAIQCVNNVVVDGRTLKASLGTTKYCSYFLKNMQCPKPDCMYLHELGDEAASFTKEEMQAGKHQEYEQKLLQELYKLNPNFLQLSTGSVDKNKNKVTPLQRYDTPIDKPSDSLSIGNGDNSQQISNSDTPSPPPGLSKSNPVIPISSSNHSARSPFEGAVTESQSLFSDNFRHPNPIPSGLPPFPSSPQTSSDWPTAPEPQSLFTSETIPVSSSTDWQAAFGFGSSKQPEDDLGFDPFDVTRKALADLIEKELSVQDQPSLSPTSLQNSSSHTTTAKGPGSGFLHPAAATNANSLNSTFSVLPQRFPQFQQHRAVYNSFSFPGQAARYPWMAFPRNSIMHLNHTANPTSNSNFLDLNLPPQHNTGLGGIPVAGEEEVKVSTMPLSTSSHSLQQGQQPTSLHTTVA
How it was run: (§1)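 In-situ probe treatment of cells; lysate 2 mg/mL, IA-DTB 1 h RT; MeOH/CHCl3 precipitation, DTT/iodoacetamide, trypsin; streptavidin enrichment; TMT labeling, high-pH fractionation. Ratio = TMT reporter intensity / mean DMSO channels, median-normalized.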

ATP9A_C31 = biological target: T2, ATP9A_C31 (Homo sapiens, UniProt O75110); assay: IA-DTB cysteine engagement; assay type: binding; conditions: 22Rv1 cells, 20 μM probe, 1 h, relative to DMSO
T2 construct: endogenous in cells; host or cells: 22Rv1
T2 sequence (O75110 1-1047): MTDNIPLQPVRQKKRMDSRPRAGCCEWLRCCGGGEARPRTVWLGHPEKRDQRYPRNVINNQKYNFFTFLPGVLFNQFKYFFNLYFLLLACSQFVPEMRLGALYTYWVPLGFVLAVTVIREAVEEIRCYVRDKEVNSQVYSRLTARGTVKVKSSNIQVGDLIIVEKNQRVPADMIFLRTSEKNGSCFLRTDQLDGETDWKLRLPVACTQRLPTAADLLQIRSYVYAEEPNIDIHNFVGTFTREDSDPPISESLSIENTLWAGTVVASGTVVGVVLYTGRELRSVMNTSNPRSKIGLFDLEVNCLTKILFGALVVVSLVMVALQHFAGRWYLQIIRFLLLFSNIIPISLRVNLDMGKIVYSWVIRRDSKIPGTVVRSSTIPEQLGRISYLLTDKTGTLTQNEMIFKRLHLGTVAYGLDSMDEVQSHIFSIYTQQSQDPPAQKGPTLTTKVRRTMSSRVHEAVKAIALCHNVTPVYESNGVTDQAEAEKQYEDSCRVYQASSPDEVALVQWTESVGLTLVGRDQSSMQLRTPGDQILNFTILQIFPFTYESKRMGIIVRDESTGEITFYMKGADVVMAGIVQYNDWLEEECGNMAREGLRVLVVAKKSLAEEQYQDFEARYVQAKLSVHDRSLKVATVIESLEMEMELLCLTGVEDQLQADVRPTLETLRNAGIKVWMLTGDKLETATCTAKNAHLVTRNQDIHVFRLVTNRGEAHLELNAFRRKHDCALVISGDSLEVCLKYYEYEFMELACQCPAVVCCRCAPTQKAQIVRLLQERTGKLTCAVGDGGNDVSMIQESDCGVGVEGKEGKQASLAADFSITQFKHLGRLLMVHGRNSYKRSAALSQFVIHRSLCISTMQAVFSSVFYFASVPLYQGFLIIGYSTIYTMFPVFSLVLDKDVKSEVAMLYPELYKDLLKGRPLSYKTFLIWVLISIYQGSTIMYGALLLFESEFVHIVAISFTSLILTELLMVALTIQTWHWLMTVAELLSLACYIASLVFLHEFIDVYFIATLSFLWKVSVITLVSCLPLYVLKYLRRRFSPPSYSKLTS
How it was run: as §1

Row | % engagement CNOT4_C175 (CNOT4_C175) [%] | % engagement ATP9A_C31 (ATP9A_C31) [%] | SMILES
1 | 76 | 86.5 | C=CC(=O)N1C[C@H](c2ccc(Br)cc2)[C@H]1C(=O)Nc1cccc2cccnc12 [MY-3B, (2S,3S)-1-acryloyl-3-(4-bromophenyl)-N-(quinolin-8-yl)azetidine-2-carboxamide]
2 | −15 | 79.5 | C=CC(=O)N1C[C@H](c2ccc(Br)cc2)[C@@H]1C(=O)Nc1cccc2cccnc12 [MY-1B, (2R,3S)-1-acryloyl-3-(4-bromophenyl)-N-(quinolin-8-yl)azetidine-2-carboxamide]
3 | 76.5 | 73 | C=CC(=O)N1C[C@H](c2ccc(Br)cc2)[C@H]1C(=O)Nc1cccc2cccnc12 [MY-3A, (2S,3S)-1-acryloyl-3-(4-bromophenyl)-N-(quinolin-8-yl)azetidine-2-carboxamide]
4 | 0 | 84.5 | C=CC(=O)N1C[C@@H](c2ccc(Br)cc2)[C@H]1C(=O)Nc1cccc2cccnc12 [MY-1A, (2S,3R)-1-acryloyl-3-(4-bromophenyl)-N-(quinolin-8-yl)azetidine-2-carboxamide]
